Each structure is given as a SMILES string.

The series in a line: Adsorption force of the first compound. The note with it: adsorption to pixel electrode; unit not given; larger absolute value = stronger adsorption. The series is classed as physicochemical. Also on record: unit not given here. An excerpt:
Next, a physical characteristic of the first compound according to an example embodiment obtained as above-described and a comparative example are compared.
As described in Table 2, solubility and adsorption force of the first compound according to Examples 1 to 7 and the Comparative Example are described.
Referring to Table 2, in the case of the first compound according to an example embodiment, it is confirmed that the solubility is the same level as or higher than the comparative example. Also, it may be confirmed that an absolute value of the adsorption force of the first compound is the same level as or higher than the comparative example. Accordingly, the first compound may be easily absorbed to the pixel electrode, thereby it may be confirmed that the solubility is excellent when being injected to the liquid crystal material and the first compound is easily injected along with the liquid crystal material.
`C=CC(=O)OCCOc1c(F)cc(-c2ccc(OCCOC(=O)CCOCc3ccon3)cc2)cc1F` [Example 7] came in with an Adsorption force of −0.53.
The compound `C=C(CCN(CCO)CCO)Oc1ccc(C(=O)c2ccc(OC(=O)C(=C)C)cc2)cc1` [Example 1] returned an Adsorption force of −1.27.
In the case of `C=CC(=O)OCCOc1c(F)cc(-c2ccc(OCCOC(=O)CCOCc3cccnn3)cc2)cc1F` [Example 6], the Adsorption force is given as −0.51.
`C=CC(=O)OCCOc1c(F)cc(-c2ccc(OCCOC(=O)CCOC3CCOCC3)cc2)cc1F` [Example 4] returned an Adsorption force of −0.40.
Under `C=CC(=O)OCCOc1c(F)cc(-c2ccc(OCCOC(=O)CCOCc3ccoc3)cc2)cc1F` [Example 5] stands −0.45; under `C=C(C)C(=O)OCCCCCOc1ccc(C(=O)c2ccc(OCCCCCCOC(=O)CCN(CCO)CCO)cc2)cc1` [Example 2], −1.34; under `C=C(C)C(=O)OCCCc1cc(-c2ccccc2CC)cc(CCCOC(=O)C(=C)C)c1OCCCCCc1ccc(OCCCCCO)cc1` [Comparative Example, reference compound], −0.49.
Under `C=C(C)C(=O)OCCCCCOc1c(F)cc(-c2ccc(OCCCCCCOC(=O)CCN(CCC)CCO)cc2)cc1F` [Example 3] stands −0.99.

Source of the values: patent US10414983B2, “Curved liquid crystal display” (SAMSUNG DISPLAY CO., LTD., priority 2017, dated 2019).
